Assay results reported in PMC8266232, “Design, synthesis, and analysis of antiproliferative and apoptosis-inducing activities of nitrile derivatives containing a benzofuran scaffold: EGFR inhibition assay and molecular modelling study” (Journal of Enzyme Inhibition and Medicinal Chemistry, 2021).

How the values were obtained:
[1] = tested on: HePG2 cells (hepatocellular carcinoma); assay: MTT antiproliferative assay, HePG2; type: cell-based, human; conditions: Homo sapiens, HepG2, MTT assay, HePG2, triplicate; read-out: In vitro cytotoxicity IC50, HePG2
Method: (§1) The in vitro antiproliferative activity of all synthesised compounds was evaluated by an MTT assay according to the reported method[47]^,[48].
(§2) 2. Experimental procedure
(§3) 2.1. Antiproliferative screening
(§4) The in vitro antiproliferative activity of all synthesized compounds was evaluated by an MTT assay according to the reported method using five different human cancer cell lines, including […]
(§5) cervical carcinoma (HeLa), and human prostate cancer (PC-3). The cell lines were obtained from ATCC via a holding company for biological products and vaccines (VACSERA), Cairo, Egypt. The MTT assay is a colorimetric assay used for measuring the cellular growth based on the reduction of the yellow MTT to a purple formazan derivative by mitochondrial succinate dehydrogenase in viable cells. The color intensity of the formazan dye is correlated to the number of viable cells. The […]
(§6) IC50% values were calculated using dose response curves. The percentage of relative cell viability was calculated as (A570 of treated samples)/(A570 of untreated sample) × 100. The cytotoxic activity was defined as the concentration of the compound that caused 50% growth inhibition compared with the growth of an untreated cell. […]

WI38 normal cell = assay: MTT cytotoxicity on normal fibroblast cells; type: cell-based; conditions: Homo sapiens, WI-38; MTT assay, non tumour normal cell WI38
[2] = tested on: PC3 cells (human prostate carcinoma); assay: MTT antiproliferative assay, PC3; type: cell-based; conditions: PC-3, PC3, triplicate, read-out: In vitro cytotoxicity IC50, PC3
Method: as §1, §2, §3, §4, §5, §6

[3] = tested on: MCF-7 cells (human breast adenocarcinoma); assay: MTT antiproliferative assay, MCF-7; type: cell-based; conditions: Homo sapiens, MCF7, MTT assay, MCF-7, triplicate; read-out: In vitro cytotoxicity IC50, MCF-7
Method: as §1, §2, §3, §4, §5, §6

MCF-7 cells [4] = assay: Cell cycle analysis by PI flow cytometry, MCF-7; conditions: MCF-7, 10 µM, 24 h
Method: (§7) A comparison was made to the control (DMSO) and reference (gefitinib).
Cell cycle analysis and induction of apoptosis
Flow cytometry analysis of the cell cycle distribution
incubation period, the cells were collected, centrifuged, and ﬁxed with ice-cold ethanol (70%). The cells were subsequently treated with a buffer containing RNAse A and 0.1% Triton X-100, and stained
with PI. The cells were compared with the control, which was treated with DMSO. The DNA content
was measured by flow cytometry [50-52].

MCF-7 cells [5] = assay: Annexin V-FITC/PI apoptosis assay, MCF-7; conditions: MCF-7, 10 µM, 24 h
Method: as §7
The cell line samples were analysed using FACSCalibur flow cytometer.
with PI. The cells were compared with the control, which was treated with DMSO.
Analysis of cellular apoptosis
concentration, respectively, and then incubated for 24 h. Following incubation, 1 –5 × 10^5 cells were
harvested and suspended in 500 µ L of the binding buffer, 5 µ L of annexin V-FITC, and 5 µL of PI.
annexin V-FITC conjugate is specially engineered to produce an enhanced fluorescence signal and
photostability. The annexin V-FITC kit included annexin V-FITC for detecting apoptosis as well as PI
for detecting necrosis. Thus, apoptosis and necrosis could be effectively differentiated. Detection and
analysis of the annexin V-FITC binding by flow cytometry was conducted using a FITC signal
detector (typically FL1). PI staining was evaluated by a phycoerythrin emission signal detector

[6] = tested on: HCT-116 cells (colorectal carcinoma); assay: MTT antiproliferative assay, HCT-116; type: cell-based, human; conditions: Homo sapiens, HCT-116, MTT assay, HCT-116, triplicate; read-out: In vitro cytotoxicity IC50, HCT-116
Method: as §1, §2, §3, §4, §5, §6

[7] = tested on: human caspase-3 (active) in MCF-7 cells; assay: Caspase-3 ELISA in MCF-7 cells; type: cell-based
Method: Caspases are critical mediators of programmed cell death, that is, apoptosis. Caspase-3 is important in processes involving dissociation of the cell and the formation of the apoptotic element; therefore, it is regarded as one of the best biochemical hallmarks of apoptosis. […] The concentration of active caspase-3 was measured using the ELISA technique. In addition, the fluorescence density produced by the tested compounds is illustrated in Figure 4. […] The level of caspase-3 increased 5.7-fold compared to the control. Moreover, a considerable 7.3-fold increase in the caspase-3 level was detected following the treatment of the MCF-7 cells with compound 11. The bioluminescent intensities of caspase-3 indicated the apoptotic activity of compounds 3 and 11.
Afterward, measure luminescence using the
tested in triplicates.[36-38].
active caspase-3 [49]. […] The tested
Subsequently, 100 µL of an
incubated for 30 min at room temperature.
chromogen. […] The intensity of the resulting colored

EGFR TK = biological target: T1, EGFR TK (Homo sapiens, UniProt P00533); assay: EGFR TK inhibition assay (luminescent, Kinase-Glo MAX); type: biochemical
T1 construct: add 20 μl of diluted EGFR enzyme and incubate at 30°C for 40
T1 sequence (P00533 25-1210): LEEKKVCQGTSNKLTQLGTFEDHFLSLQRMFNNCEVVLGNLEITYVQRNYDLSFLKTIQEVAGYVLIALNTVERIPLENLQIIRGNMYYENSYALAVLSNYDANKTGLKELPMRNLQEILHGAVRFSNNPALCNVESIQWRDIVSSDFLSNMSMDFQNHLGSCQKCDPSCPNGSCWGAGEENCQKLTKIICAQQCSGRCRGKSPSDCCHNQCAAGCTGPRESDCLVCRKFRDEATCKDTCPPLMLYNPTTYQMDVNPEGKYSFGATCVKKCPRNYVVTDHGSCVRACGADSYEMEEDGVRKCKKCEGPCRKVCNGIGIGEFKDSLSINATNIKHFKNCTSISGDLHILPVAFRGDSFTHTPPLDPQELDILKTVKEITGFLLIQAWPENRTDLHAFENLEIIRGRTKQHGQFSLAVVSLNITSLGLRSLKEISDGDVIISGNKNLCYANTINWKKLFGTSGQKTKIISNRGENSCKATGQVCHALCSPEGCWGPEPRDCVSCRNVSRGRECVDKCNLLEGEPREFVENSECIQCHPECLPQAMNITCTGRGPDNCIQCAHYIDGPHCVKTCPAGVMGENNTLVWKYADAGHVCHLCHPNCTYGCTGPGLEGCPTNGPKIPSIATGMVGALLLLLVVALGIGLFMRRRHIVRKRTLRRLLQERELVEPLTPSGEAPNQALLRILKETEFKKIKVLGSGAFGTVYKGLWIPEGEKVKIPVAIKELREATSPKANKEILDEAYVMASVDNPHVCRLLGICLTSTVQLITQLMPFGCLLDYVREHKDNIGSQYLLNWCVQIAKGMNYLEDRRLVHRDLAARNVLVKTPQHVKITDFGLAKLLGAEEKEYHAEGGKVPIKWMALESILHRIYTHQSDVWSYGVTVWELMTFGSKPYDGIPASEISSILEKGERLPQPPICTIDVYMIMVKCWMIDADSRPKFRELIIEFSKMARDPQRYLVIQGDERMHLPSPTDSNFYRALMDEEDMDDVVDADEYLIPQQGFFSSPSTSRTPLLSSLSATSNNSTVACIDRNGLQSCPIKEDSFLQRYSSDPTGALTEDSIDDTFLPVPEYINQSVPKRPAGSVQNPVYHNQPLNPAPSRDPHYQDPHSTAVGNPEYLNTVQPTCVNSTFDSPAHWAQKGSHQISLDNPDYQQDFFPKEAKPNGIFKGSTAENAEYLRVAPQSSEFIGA
Method: 2.2. Epidermal growth factor inhibition assay
In vitro luminescent EGFR tyrosine kinase assay, using Kinase-Glo® MAX as a detection reagent using DP‐Glo™ reagent that measures the adenosine diphosphate (ADP) formed from a kinase reaction, were performed; this luminescent signal positively correlates with ADP amount and kinase activity. In 17 μl of distilled water, 6 μl of Kinase assay buffer and 1 μl ATP and 1 μl PTK substrate were mixed (master mixture). In every well, mix 20 μl of the master mixture and 5 μl of Inhibitor solution (Test Inhibitor) for positive control, and use 5 μl of the same solution without inhibitor (Inhibitor buffer) as the blank solution; add 20 μl of diluted EGFR enzyme and incubate at 30°C for 40

[8] = tested on: HeLa cells (cervical carcinoma); assay: MTT antiproliferative assay, HeLa; type: cell-based, human; conditions: Homo sapiens, triplicate, read-out: In vitro cytotoxicity IC50, HeLa
Method: as §1, §2, §3, §4, §5, §6

N#Cc1c(-c2cc3ccccc3o2)ccnc1NCCc1ccccc1 [Compound 11, 4-(Benzofuran-2-yl)-2-(phenethylamino)nicotinonitrile]
IC50 [1]: 20.4 ± 1.6 µM | IC50 (WI38 normal cell): 94.5 ± 5.13 µM | IC50 [2]: 18.8 ± 1.5 µM | IC50 [3]: 14.6 ± 1.3 µM | %Pre/G1 (MCF-7 cells [4]; control 0.55, '% Apoptosis' in Figure 6A): 16.25% | %G2/M (MCF-7 cells [4]; control 3.66): 15.28% | %S (MCF-7 cells [4]; control 27.37): 21.36% | %G0/G1 (MCF-7 cells [4]; control 66.42): 47.11% | Necrosis (MCF-7 cells [5]; control 0.15): 1.23% | Early apoptosis (MCF-7 cells [5]; control 0.16): 6.89% | Late apoptosis (MCF-7 cells [5]; control 0.24): 8.13% | Apoptosis, Total (MCF-7 cells [5]; control 0.55): 16.25% | IC50 [6]: 46.1 ± 2.7 µM | Caspase-3 Conc. ([7]; ELISA, control 60.7): 440.08 pg/mL | Caspase-3 level, Fold ([7]; compared to the control): 7.3 fold | IC50 (EGFR TK): 0.81 µM | IC50 [8]: 32.1 ± 1.9 µM
